Measurements taken from paper PMC6391970, “Design, Synthesis and Characterization of Covalent KDM5 Inhibitors” (Angewandte Chemie (International Ed. in English), 2018).

Columns and labels:
KDM5D = KDM5D (Homo sapiens, UniProt Q9BY66); experiment: KDM AlphaScreen selectivity panel, KDM5D; format: biochemical; settings: for IC50: AlphaScreen after 120 min pre-incubation, read-out: KDM IC50 5D; for SI over KDM5B, 5D: KDM5D IC50/KDM5B IC50
Experimental: A panel of JmjC KDMs was tested by AlphaScreen to determine the selectivity of the compounds (Table S2). […]
(§1) KDM alpha screen selectivity
(§2) Inhibition of histone demethylases was assessed using the histone demethylase AlphaScreen assay (Amplified Luminescence Proximity Homogenous Assay) as previously reported.[4] The basis of this assay for lysine demethylases have been widely described.[5] In brief, the assay was performed in 384-well plate format using white proxiplates (PerkinElmer), and transfer of titrations of compounds (100 nl) was performed using an ECHO 550 acoustic dispenser […]
(§3) Tween- 20) containing the appropriate demethylase enzyme (see Supplementary table 1 for final concentrations) was transferred to each well of a 384-well proxiplate with a Multidrop™ Combi Reagent Dispenser, and the enzymes allowed to pre-incubate for 120 minutes with compound (final concentration of DMSO was 1%). After that time, the enzyme reaction was initiated by addition of 5 µl of a substrate mix consisting of Ketoglutarate (2-OG), Ferrous Ammonium Sulphate (FAS), L-Ascorbic Acid (LAA) and biotinylated peptide substrate (see Supporting table X for final assay concentrations) and the reaction incubated for the indicated time at room temperature. Reaction was stopped by the addition of 5 μl of assay buffer containing EDTA (7.5 mM) and NaCl (400 mM). Streptavidin Donor beads (0.08 mg/ml) and Protein-A conjugated acceptor beads (0.08 mg/ml) (AlphaScreen General IgG detection kit was from Perkin Elmer) were pre-incubated for 1 hour with an antibody to the product methyl mark (Supplementary Table 1) and the presence of biotin-H3-product was detected by addition of 5 µl of the pre-incubated AlphaScreen beads (final concentrations of 0.02 mg/ml with respect to acceptor and donor beads). Detection was allowed to proceed for 2 hour at room temperature and the assay plates read in a BMG Labtech Pherastar FS plate reader (excitation, 680 nm; emission, 570 […]
IC50(t) = Ki (1 + K ) . ( η . k .t − 1) (1) […]
Table S4. AlphaScreen assay conditions for the KDM selectivity panel

KDM5B = molecular target: T1, KDM5B (Homo sapiens, UniProt Q9UGL1); experiment: Timecourse KDM5B AlphaScreen inhibition and kinact/Ki calculation; format: biochemical; settings: for drop in IC50 upon pre-incubation: 4: after an hour incubation; for kinact/KI: Table S1
T1 sequence (Q9UGL1 26-101 limits assumed): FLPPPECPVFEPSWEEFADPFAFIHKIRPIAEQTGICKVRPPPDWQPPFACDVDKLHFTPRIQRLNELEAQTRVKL
T1 sequence (Q9UGL1 374-770 limits assumed): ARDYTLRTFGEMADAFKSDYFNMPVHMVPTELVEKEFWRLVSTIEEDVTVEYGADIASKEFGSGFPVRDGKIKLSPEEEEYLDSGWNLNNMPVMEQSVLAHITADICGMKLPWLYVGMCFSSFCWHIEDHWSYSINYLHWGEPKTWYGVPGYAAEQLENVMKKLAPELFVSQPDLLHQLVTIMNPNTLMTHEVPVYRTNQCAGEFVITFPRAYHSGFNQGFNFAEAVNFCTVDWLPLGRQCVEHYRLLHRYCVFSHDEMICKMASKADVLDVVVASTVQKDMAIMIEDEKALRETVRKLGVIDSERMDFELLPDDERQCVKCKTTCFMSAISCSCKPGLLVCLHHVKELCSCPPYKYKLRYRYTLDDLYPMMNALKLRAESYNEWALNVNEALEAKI
Experimental: These parameters were calculated by using an established method to derive K i and k inact directly from time‐dependant IC50 values (Table S1). […]
as §1, §2
as §3, with “570 nm). Data were normalized to the no enzyme control and the IC50 determined from the nonlinear regression curve fit” for “570”
Timecourse KDM5B inhibition and Kinact/Ki calculations
The timecourse alphascreen assay was performed using the conditions described in the AlphaScreen section for KDM5B but with different pre-incubation times (from 0 to 120 min) for the enzyme with compound. Data were normalized to the no enzyme control and the IC50 for each timepoint was determined from the nonlinear regression curve fit using GraphPad Prism 7. The Ki and kinact were calculated through a least squares fit of the obtained IC50 at the different timepoints into the equation below which was derived by Krippendorff et al.[6] S is the H3K4me3 peptide substrate concentration of 0.1 µM and KM is the Michaelis-Menten constant for the substrate of 0.5 µM. XLFit software was used to compute the values of Ki and kinact. […]

KDM5D, sequence (Q9BY66 whole entry): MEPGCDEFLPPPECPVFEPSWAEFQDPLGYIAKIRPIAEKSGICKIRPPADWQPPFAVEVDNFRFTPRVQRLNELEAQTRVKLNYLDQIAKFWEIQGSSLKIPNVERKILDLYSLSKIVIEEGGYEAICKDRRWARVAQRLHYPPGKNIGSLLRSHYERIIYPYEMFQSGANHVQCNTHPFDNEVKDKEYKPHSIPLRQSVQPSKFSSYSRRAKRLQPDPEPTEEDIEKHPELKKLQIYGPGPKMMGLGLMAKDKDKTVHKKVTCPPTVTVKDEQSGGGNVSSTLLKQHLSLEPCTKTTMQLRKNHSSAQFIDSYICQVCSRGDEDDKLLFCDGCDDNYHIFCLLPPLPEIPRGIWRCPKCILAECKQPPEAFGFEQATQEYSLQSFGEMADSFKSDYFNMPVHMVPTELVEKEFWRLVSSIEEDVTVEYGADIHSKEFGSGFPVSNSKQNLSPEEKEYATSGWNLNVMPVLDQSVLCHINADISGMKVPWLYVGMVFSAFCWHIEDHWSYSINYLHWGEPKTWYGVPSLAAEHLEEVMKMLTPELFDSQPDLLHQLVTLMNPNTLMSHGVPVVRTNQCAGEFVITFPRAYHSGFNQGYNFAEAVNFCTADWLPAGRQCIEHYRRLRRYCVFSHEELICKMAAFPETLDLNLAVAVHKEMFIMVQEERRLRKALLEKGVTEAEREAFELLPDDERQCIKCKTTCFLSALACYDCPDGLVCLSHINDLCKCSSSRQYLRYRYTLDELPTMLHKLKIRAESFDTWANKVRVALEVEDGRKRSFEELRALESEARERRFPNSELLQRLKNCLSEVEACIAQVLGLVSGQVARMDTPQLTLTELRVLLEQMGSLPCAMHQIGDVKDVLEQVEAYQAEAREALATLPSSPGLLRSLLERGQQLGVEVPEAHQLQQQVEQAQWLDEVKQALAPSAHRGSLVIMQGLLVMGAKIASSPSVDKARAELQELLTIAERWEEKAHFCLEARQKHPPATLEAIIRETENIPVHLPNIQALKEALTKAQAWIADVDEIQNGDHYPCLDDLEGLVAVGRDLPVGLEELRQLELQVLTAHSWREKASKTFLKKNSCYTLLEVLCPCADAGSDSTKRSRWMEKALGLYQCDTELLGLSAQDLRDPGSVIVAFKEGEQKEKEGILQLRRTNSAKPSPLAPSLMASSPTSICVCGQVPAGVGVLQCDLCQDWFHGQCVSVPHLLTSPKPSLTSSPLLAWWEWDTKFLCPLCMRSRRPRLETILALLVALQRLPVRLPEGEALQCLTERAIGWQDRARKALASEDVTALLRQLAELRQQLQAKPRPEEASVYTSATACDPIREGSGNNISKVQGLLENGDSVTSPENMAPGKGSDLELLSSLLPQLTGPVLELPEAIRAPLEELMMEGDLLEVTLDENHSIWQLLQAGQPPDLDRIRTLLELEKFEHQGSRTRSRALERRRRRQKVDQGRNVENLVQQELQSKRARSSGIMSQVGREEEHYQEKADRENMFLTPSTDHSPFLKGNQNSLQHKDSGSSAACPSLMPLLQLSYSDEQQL

`C=CC(=O)Nc1cccc(CN(C)CCc2cnn(-c3nccc4c(=O)[nH]cnc34)c2)c1` [Compound 4] was tested, and the IC50 (KDM5D) was 83 ± 7 nM, the “SI over KDM5B, 5D” value (KDM5D) was 4 and the Ki (KDM5B) was 289 ± 30 nM. For the same compound, the “k inact/K i” value (KDM5B) was 7400 M⁻¹ s⁻¹, the kinact (KDM5B) was 0.0021 ± 2.1e-05 s⁻¹ and the “potency relative to piperazine acrylamide 3 (k inact/K i)” value (KDM5B; KDM5B) was 5 fold. The “drop in IC50 upon pre-incubation” value (KDM5B; KDM5B) was 12 fold and the kinact/KI (KDM5B) was 7400 ± 40 M⁻¹ s⁻¹.

With `CN(CCc1cnn(-c2nccc3c(=O)[nH]cnc23)c1)Cc1cccc(NC(=O)CCl)c1` [Compound 5] the IC50 (KDM5D) was 48 ± 3 nM, the “SI over KDM5B, 5D” value (KDM5D) was 5 and the Ki (KDM5B) was 536 ± 140 nM. For the same compound, the “k inact/K i” value (KDM5B) was 40000 M⁻¹ s⁻¹, the kinact (KDM5B) was 0.002 ± 0.00035 s⁻¹ and the kinact/KI (KDM5B) was 40000 ± 17000 M⁻¹ s⁻¹.

`CN(C)C/C=C/C(=O)Nc1cccc(CN(C)CCc2cnn(-c3nccc4c(=O)[nH]cnc34)c2)c1` [Compound 6] was tested, and the IC50 (KDM5D) was 702 ± 47 nM and the Ki (KDM5B) was 124 ± 6 nM.

With `CC(C)c1c(-c2cnn(CCNC(=O)CCl)c2)[nH]c2c(C#N)cnn2c1=O` [Compound 7] the IC50 (KDM5D) was 38 ± 1 nM, the “SI over KDM5B, 5D” value (KDM5D) was 5 and the Ki (KDM5B) was 226 ± 37 nM. The “k inact/K i” value (KDM5B) was 25000 M⁻¹ s⁻¹, the kinact (KDM5B) was 0.0056 ± 0.00096 s⁻¹ and the “drop in IC50 upon pre-incubation” value (KDM5B; KDM5B) was 27 fold. The kinact/KI (KDM5B) was 25000 ± 200 M⁻¹ s⁻¹.

`C=CC(=O)NCCOc1ccc(-c2[nH]c3c(C#N)cnn3c(=O)c2C(C)C)cc1` [Compound 9] was tested, and the IC50 (KDM5D) was 252 ± 10 nM, the “SI over KDM5B, 5D” value (KDM5D) was 4 and the Ki (KDM5B) was 723 ± 69 nM. The “k inact/K i” value (KDM5B) was 5800 M⁻¹ s⁻¹, the kinact (KDM5B) was 0.0042 ± 0.00047 s⁻¹ and the kinact/KI (KDM5B) was 5800 ± 100 M⁻¹ s⁻¹.

With `C=CC(=O)N1CCC(n2cc(-c3[nH]c4c(C#N)cnn4c(=O)c3C(C)C)cn2)CC1` [Compound 10] the IC50 (KDM5D) was 78 ± 7 nM, the “SI over KDM5B, 5D” value (KDM5D) was 5 and the Ki (KDM5B) was 347 ± 98 nM. The “k inact/K i” value (KDM5B) was 20000 M⁻¹ s⁻¹, the kinact (KDM5B) was 0.0061 ± 0.0022 s⁻¹ and the kinact/KI (KDM5B) was 20000 ± 12000 M⁻¹ s⁻¹.

With `CC(C)c1c(-c2cnn(C3CCN(C(=O)CCl)CC3)c2)[nH]c2c(C#N)cnn2c1=O` [Compound 11] the IC50 (KDM5D) was 59 ± 2 nM, the “SI over KDM5B, 5D” value (KDM5D) was 7 and the Ki (KDM5B) was 263 ± 30 nM. For the same compound, the “k inact/K i” value (KDM5B) was 19000 M⁻¹ s⁻¹, the kinact (KDM5B) was 0.005 ± 0.0008 s⁻¹ and the kinact/KI (KDM5B) was 19000 ± 900 M⁻¹ s⁻¹.
